Our source for the IC50 values is patent publication US9873709B2 (priority 2013, dated 2018).

Molecules are shown by their SMILES. pIC50: −log10 of the molar value.

The subject of this experiment is JAK1-dependent STAT6 phosphorylation downstream of IL-13 stimulation in TF-1 human erythroleukemia cells. Put plainly: cells. The conditions noted are these: TF-1, read-out: IL-13-pSTAT6 IC50.
As a reminder, the pIC50 is the IC50 on a negative log10 scale, so that one unit is a factor of ten. Take `CN(C)C(=O)C1CN(C(=O)c2ccc(Nc3nc4c(C5=CCN(C(=O)CCC(F)(F)F)CC5)cccn4n3)cc2)CCN1C` (centres unmarked) [Example 2-325, N,N,1-trimethyl-4-[4-[[8-[1-(4,4,4-trifluorobutanoyl)-3,6-dihydro-2H-pyridin-4-yl]-[1,2,4]triazolo[1,5-a]pyridin-2-yl]amino]benzoyl] piperazine-2-carboxamide]: the pIC50 is 6.72.

Regarding `CN1C[C@@H]2CCN(C(=O)c3ccc(Nc4nc5c(C6=CCN(C(=O)CCC(F)(F)F)CC6)cccn5n4)cc3)[C@@H]2C1` [Example 2-326, 1-[4-[2-[4-[(3aS,6aS)-5-methyl-2,3,3a,4,6,6a-hexahydropyrrolo[2,3-c]pyrrole-1-carbonyl]anilino]-[1,2,4]triazolo[1,5-a]pyridin-8-yl]-3,6-dihydro-2H-pyridin-1-yl]-4,4,4-trifluoro-butan-1-one], the pIC50 is 8.38.

Regarding `CN1CCC2(C1)CN(C(=O)c1ccc(Nc3nc4c(C5=CCN(C(=O)CCC(F)(F)F)CC5)cccn4n3)cc1)C2` [Example 2-328, 4,4,4-trifluoro-1-[4-[2-[4-(7-methyl-2,7-diazaspiro[3.4]octane-2-carbonyl)anilino]-[1,2,4]triazolo[1,5-a]pyridin-8-yl]-3,6-dihydro-2H-pyridin-1-yl]butan-1-one], the pIC50 was 7.91.

Regarding `O=C(CCC(F)(F)F)N1CC=C(c2cccn3nc(Nc4ccc(C(=O)N5CCN(C6CCCCC6)CC5)cc4)nc23)CC1` [Example 2-329, 1-[4-[2-[4-(4-cyclohexylpiperazine-1-carbonyl)anilino]-[1,2,4]triazolo[1,5-a]pyridin-8-yl]-3,6-dihydro-2H-pyridin-1-yl]-4,4,4-trifluoro-butan-1-one], the pIC50 is 8.08.

Regarding `CC(C)N1CCC(N(C)C(=O)c2ccc(Nc3nc4c(C5=CCN(C(=O)CCC(F)(F)F)CC5)cccn4n3)cc2)CC1` [Example 2-330, N-(1-isopropyl-4-piperidyl)-N-methyl-4-[[8-[1-(4,4,4-trifluorobutanoyl)-3,6-dihydro-2H-pyridin-4-yl]-[1,2,4]triazolo[1,5-a]pyridin-2-yl]amino]benzamide], the pIC50 is 7.87.

As for `COCCN1CCN(C(=O)c2ccc(Nc3nc4c(C5=CCN(C(=O)CCC(F)(F)F)CC5)cccn4n3)cc2)CC1` [Example 2-331, 4,4,4-trifluoro-1-[4-[2-[4-[4-(2-methoxyethyl)piperazine-1-carbonyl]anilino]-[1,2,4]triazolo[1,5-a]pyridin-8-yl]-3,6-dihydro-2H-pyridin-1-yl]butan-1-one], the negative-log IC50 (pIC50) is 8.05.

`CN1C(C)(C)CC(NC(=O)c2ccc(Nc3nc4c(C5=CCN(C(=O)CCC(F)(F)F)CC5)cccn4n3)cc2)CC1(C)C` [Example 2-332, N-(1,2,2,6,6-pentamethyl-4-piperidyl)-4-[[8-[1-(4,4,4-trifluorobutanoyl)-3,6-dihydro-2H-pyridin-4-yl]-[1,2,4]triazolo[1,5-a]pyridin-2-yl]amino]benzamide]: the pIC50 was 8.04.

For `CC(C)(CN1CCOCC1)NC(=O)c1ccc(Nc2nc3c(C4=CCN(C(=O)CCC(F)(F)F)CC4)cccn3n2)cc1` [Example 2-333, N-(1,1-dimethyl-2-morpholino-ethyl)-4-[[8-[1-(4,4,4-trifluorobutanoyl)-3,6-dihydro-2H-pyridin-4-yl]-[1,2,4]triazolo[1,5-a]pyridin-2-yl]amino]benzamide], the pIC50 is 8.26.

Turning to `CN1CCC(NC(=O)c2ccc(Nc3nc4c(C5=CCN(C(=O)CCC(F)(F)F)CC5)cccn4n3)cc2)CC1` [Example 2-335, N-(1-methyl-4-piperidyl)-4-[[8-[1-(4,4,4-trifluorobutanoyl)-3,6-dihydro-2H-pyridin-4-yl]-[1,2,4]triazolo[1,5-a]pyridin-2-yl]amino]benzamide], the pIC50 is 7.84.

As for `CN(C)CCNC(=O)c1ccc(Nc2nc3c(C4=CCN(C(=O)CCC(F)(F)F)CC4)cccn3n2)cc1` [Example 2-336, N-[2-(dimethylamino)ethyl]-4-[[8-[1-(4,4,4-trifluorobutanoyl)-3,6-dihydro-2H-pyridin-4-yl]-[1,2,4]triazolo[1,5-a]pyridin-2-yl]amino]benzamide], the pIC50 is 8.07.

Turning to `CN1CCCC(CNC(=O)c2ccc(Nc3nc4c(C5=CCN(C(=O)CCC(F)(F)F)CC5)cccn4n3)cc2)C1` (centres unmarked) [Example 2-337, N-[(1-methyl-3-piperidyl)methyl]-4-[[8-[1-(4,4,4-trifluorobutanoyl)-3,6-dihydro-2H-pyridin-4-yl]-[1,2,4]triazolo[1,5-a]pyridin-2-yl]amino]benzamide], the pIC50 is 7.54.

For `O=C(CCC(F)(F)F)N1CC=C(c2cccn3nc(Nc4ccc(C(=O)N5CCCC(N6CCOCC6)C5)cc4)nc23)CC1` (centres unmarked) [Example 2-339, 4,4,4-trifluoro-1-[4-[2-[4-(3-morpholinopiperidine-1-carbonyl)anilino]-[1,2,4]triazolo[1,5-a]pyridin-8-yl]-3,6-dihydro-2H-pyridin-1-yl]butan-1-one], the pIC50 was 8.01.

`O=C(CCC(F)(F)F)N1CC=C(c2cccn3nc(Nc4ccc(C(=O)N5CCN(CC6CCCO6)CC5)cc4)nc23)CC1` (centres unmarked) [Example 2-340, 4,4,4-trifluoro-1-[4-[2-[4-[4-(tetrahydrofuran-2-ylmethyl)piperazine-1-carbonyl]anilino]-[1,2,4]triazolo[1,5-a]pyridin-8-yl]-3,6-dihydro-2H-pyridin-1-yl]butan-1-one]: the pIC50 was 8.41.

For the compound `O=C(CCC(F)(F)F)N1CC=C(c2cccn3nc(Nc4ccc(C(=O)N5CCCC(c6ccccn6)C5)cc4)nc23)CC1` (centres unmarked) [Example 2-341, 4,4,4-trifluoro-1-[4-[2-[4-[3-(2-pyridyl)piperidine-1-carbonyl]anilino]-[1,2,4]triazolo[1,5-a]pyridin-8-yl]-3,6-dihydro-2H-pyridin-1-yl]butan-1-one], the pIC50 is 7.94.

As to `CNC(=O)C1CN(C(=O)c2ccc(Nc3nc4c(C5=CCN(C(=O)CCC(F)(F)F)CC5)cccn4n3)cc2)CCN1Cc1ccccc1` (centres unmarked) [Example 2-342, 1-benzyl-N-methyl-4-[4-[[8-[1-(4,4,4-trifluorobutanoyl)-3,6-dihydro-2H-pyridin-4-yl]-[1,2,4]triazolo[1,5-a]pyridin-2-yl]amino]benzoyl] piperazine-2-carboxamide], the pIC50 is 7.79.

Regarding `CC(=O)N1CC=C(c2cccn3nc(Nc4ccc(C(=O)N(C)C5CCN(C)CC5)cc4)nc23)CC1` [Example 2-344, 4-[[8-(1-acetyl-3,6-dihydro-2H-pyridin-4-yl)-[1,2,4]triazolo[1,5-a]pyridin-2-yl]amino]-N-methyl-N-(1-methyI-4-piperidyl)benzamide], the pIC50 is 5.74.

As to `CC(C)COC(=O)N1CC=C(c2cccn3nc(Nc4ccc(C(=O)N(C)C5CCN(C)CC5)cc4)nc23)CC1` [Example 2-345, isobutyl 4-[2-[4-[methyl-(1-methyl-4-piperidyl)carbamoyl]anilino]-[1,2,4]triazolo[1,5-a]pyridin-8-yl]-3,6-dihydro-2H-pyridine-1-carboxylate], the pIC50 is 7.63.

For the compound `CN1CCC(N(C)C(=O)c2ccc(Nc3nc4c(C5=CCN(C(=O)OC6CCOC6)CC5)cccn4n3)cc2)CC1` (centres unmarked) [Example 2-346, tetrahydrofuran-3-yl 4-[2-[4-[methyl-(1-methyl-4-piperidyl)carbamoyl]anilino]-[1,2,4]triazolo[1,5-a]pyridin-8-yl]-3,6-dihydro-2H-pyridine-1-carboxylate], the pIC50 was 7.05.

Regarding `CN1CCC(N(C)C(=O)c2ccc(Nc3nc4c(C5=CCN(C(=O)C6CCCCC6)CC5)cccn4n3)cc2)CC1` [Example 2-348, 4-[[8-[1-(cyclohexanecarbonyl)-3,6-dihydro-2H-pyridin-4-yl]-[1,2,4]triazolo[1,5-a]pyridin-2-yl]amino]-N-methyl-N-(1-methyl-4-piperidyl)benzamide], the pIC50 was 7.46.

With `CN1CCC(N(C)C(=O)c2ccc(Nc3nc4c(C5=CCN(C(=O)[C@H]6CC[C@H](C#N)CC6)CC5)cccn4n3)cc2)CC1` [Example 2-350, 4-[[8-[1-(4-cyanocyclohexanecarbonyl)-3,6-dihydro-2H-pyridin-4-yl]-[1,2,4]triazolo[1,5-a]pyridin-2-yl]amino]-N-methyl-N-(1-methyl-4-piperidyl)benzamide], the pIC50 was 6.14.

Take `CN1CCC(N(C)C(=O)c2ccc(Nc3nc4c(C5=CCN(C(=O)OCc6ccccc6)CC5)cccn4n3)cc2)CC1` [Example 2-351, benzyl 4-[2-[4-[methyl-(1-methyl-4-piperidyl)carbamoyl]anilino]-[1,2,4]triazolo[1,5-a]pyridin-8-yl]-3,6-dihydro-2H-pyridine-1-carboxylate]: the pIC50 is 7.28.

Consider `CN1CCC(N(C)C(=O)c2ccc(Nc3nc4c(C5=CCN(C(=O)OCC6CC6)CC5)cccn4n3)cc2)CC1` [Example 2-353, cyclopropylmethyl 4-[2-[4-[methyl-(1-methyl-4-piperidyl)carbamoyl]anilino]-[1,2,4]triazolo[1,5-a]pyridin-8-yl]-3,6-dihydro-2H-pyridine-1-carboxylate], for which the pIC50 is 7.49.

Turning to `CCOC(=O)N1CC=C(c2cccn3nc(Nc4ccc(C(=O)N5CCC(c6ccccn6)CC5)cc4)nc23)CC1` [Example 2-358, ethyl 4-[2-[4-[4-(2-pyridyl)piperidine-1-carbonyl]anilino]-[1,2,4]triazolo[1,5-a]pyridin-8-yl]-3,6-dihydro-2H-pyridine-1-carboxylate], the pIC50 was 7.38.

On to `CCOC(=O)N1CC=C(c2cccn3nc(Nc4ccc(C(=O)NC5CCNCC5)cc4)nc23)CC1` [Example 2-360, ethyl 4-[2-[4-(4-piperidylcarbamoyl)anilino]-[1,2,4]triazolo[1,5-a]pyridin-8-yl]-3,6-dihydro-2H-pyridine-1-carboxylate], for which the pIC50 was 6.39.

For `CCOC(=O)N1CC=C(c2cccn3nc(Nc4ccc(C(=O)N(C)Cc5ccncc5)cc4)nc23)CC1` [Example 2-361, ethyl 4-[2-[4-[methyl(4-pyridylmethyl)carbamoyl]anilino]-[1,2,4]triazolo[1,5-a]pyridin-8-yl]-3,6-dihydro-2H-pyridine-1-carboxylate], the pIC50 is 8.05.

With `CCOC(=O)N1CC=C(c2cccn3nc(Nc4ccc(C(=O)NCCC5CCCN5)cc4)nc23)CC1` (centres unmarked) [Example 2-362, ethyl 4-[2-[4-(2-pyrrolidin-2-ylethylcarbamoyl)anilino]-[1,2,4]triazolo[1,5-a]pyridin-8-yl]-3,6-dihydro-2H-pyridine-1-carboxylate], the negative-log IC50 (pIC50) was 6.64.
